Assay results from ChEMBL document CHEMBL4219106, “Discovery and optimization of tetrahydropyrido[4,3-d]pyrimidine derivatives as novel ATX and EGFR dual inhibitors” (Bioorg Med Chem, 2018).
Active and inactive are the calls of the source. No cut-off for these calls is given here.

Key:
A549 [1] = test: Cytotoxicity against human A549 cells assessed as reduction in cell viability after 72 hrs by MTT assay; assay type: functional, cell-based; conditions: A549, 72 h
[2] = Cytotoxicity against human SGC cells assessed as reduction in cell viability after 72 hrs by MTT assay; assay type: functional, cell-based
MKN-45 [3] = test: Cytotoxicity against human MKN45 cells assessed as reduction in cell viability after 72 hrs by MTT assay; assay type: functional, cell-based; conditions: MKN-45, 72 h
NCI-H1975 = test: Cytotoxicity against human NCI-H1975 cells assessed as reduction in cell viability after 72 hrs by MTT assay; assay type: functional, cell-based; conditions: NCI-H1975, 72 h
RAW264.7 [4] = test: Anti-inflammatory activity in mouse RAW264.7 cells assessed as inhibition of LPS-induced NO production by measuring NO level at 10 ug/ml preincubated for 1 hr followed by LPS-stimulation measured after 24 hrs by Griess assay; assay type: functional
RAW264.7 [5] = test: Anti-inflammatory activity in mouse RAW264.7 cells assessed as inhibition of LPS-induced TNFalpha mRNA level preincubated for 2 hrs followed by LPS-stimulation measured after 8 hrs by RT-PCR method; assay type: functional, cell-based
[6] = Inhibition of glycosylated human ATX using substrate FS-3 preincubated for 45 mins followed by substrate addition measured after 45 mins by fluorescence assay
[7] = biological target: Epidermal growth factor receptor (Homo sapiens, UniProt P00533, L858R/T790M); test: Inhibition of EGFR T790M/L858R double mutant (unknown origin) using peptide substrate after 60 mins by HTRF assay
Chain of Epidermal growth factor receptor (Homo sapiens, UniProt P00533, L858R/T790M) (P00533 25-1210 T790M/L858R limits assumed): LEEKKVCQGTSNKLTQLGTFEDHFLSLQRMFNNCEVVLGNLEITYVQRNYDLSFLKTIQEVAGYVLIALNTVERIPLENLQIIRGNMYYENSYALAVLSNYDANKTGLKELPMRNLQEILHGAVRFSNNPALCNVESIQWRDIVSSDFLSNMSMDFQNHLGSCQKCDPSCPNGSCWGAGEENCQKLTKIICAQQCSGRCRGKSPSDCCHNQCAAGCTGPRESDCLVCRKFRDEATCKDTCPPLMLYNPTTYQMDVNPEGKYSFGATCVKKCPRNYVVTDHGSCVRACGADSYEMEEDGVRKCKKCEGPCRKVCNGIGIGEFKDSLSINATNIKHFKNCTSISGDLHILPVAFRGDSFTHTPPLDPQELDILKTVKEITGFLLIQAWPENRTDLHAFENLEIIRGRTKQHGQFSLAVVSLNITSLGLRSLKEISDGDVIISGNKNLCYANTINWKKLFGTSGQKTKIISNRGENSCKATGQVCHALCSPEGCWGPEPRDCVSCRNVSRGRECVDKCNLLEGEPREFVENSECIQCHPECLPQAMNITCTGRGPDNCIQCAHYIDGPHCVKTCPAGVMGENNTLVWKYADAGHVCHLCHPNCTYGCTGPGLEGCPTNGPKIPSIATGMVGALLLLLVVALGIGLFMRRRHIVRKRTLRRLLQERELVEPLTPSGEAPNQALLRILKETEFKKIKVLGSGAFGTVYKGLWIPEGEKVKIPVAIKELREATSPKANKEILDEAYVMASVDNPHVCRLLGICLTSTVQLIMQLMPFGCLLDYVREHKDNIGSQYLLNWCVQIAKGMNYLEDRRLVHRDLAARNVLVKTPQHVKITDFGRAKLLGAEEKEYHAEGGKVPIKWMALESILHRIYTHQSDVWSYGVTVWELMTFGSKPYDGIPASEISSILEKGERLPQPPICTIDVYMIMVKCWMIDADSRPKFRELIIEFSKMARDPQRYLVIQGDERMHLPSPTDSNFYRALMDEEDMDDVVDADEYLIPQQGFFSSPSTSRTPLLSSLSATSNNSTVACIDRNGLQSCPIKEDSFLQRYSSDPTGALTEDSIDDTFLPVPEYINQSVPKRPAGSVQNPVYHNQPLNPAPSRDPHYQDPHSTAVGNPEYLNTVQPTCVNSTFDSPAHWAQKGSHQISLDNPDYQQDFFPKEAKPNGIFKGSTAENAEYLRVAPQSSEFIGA

[8] = biological target: Epidermal growth factor receptor (Homo sapiens, UniProt P00533); test: Inhibition of EGFR (unknown origin) using peptide substrate after 60 mins by HTRF assay
Chain of Epidermal growth factor receptor (Homo sapiens, UniProt P00533) (P00533 whole entry): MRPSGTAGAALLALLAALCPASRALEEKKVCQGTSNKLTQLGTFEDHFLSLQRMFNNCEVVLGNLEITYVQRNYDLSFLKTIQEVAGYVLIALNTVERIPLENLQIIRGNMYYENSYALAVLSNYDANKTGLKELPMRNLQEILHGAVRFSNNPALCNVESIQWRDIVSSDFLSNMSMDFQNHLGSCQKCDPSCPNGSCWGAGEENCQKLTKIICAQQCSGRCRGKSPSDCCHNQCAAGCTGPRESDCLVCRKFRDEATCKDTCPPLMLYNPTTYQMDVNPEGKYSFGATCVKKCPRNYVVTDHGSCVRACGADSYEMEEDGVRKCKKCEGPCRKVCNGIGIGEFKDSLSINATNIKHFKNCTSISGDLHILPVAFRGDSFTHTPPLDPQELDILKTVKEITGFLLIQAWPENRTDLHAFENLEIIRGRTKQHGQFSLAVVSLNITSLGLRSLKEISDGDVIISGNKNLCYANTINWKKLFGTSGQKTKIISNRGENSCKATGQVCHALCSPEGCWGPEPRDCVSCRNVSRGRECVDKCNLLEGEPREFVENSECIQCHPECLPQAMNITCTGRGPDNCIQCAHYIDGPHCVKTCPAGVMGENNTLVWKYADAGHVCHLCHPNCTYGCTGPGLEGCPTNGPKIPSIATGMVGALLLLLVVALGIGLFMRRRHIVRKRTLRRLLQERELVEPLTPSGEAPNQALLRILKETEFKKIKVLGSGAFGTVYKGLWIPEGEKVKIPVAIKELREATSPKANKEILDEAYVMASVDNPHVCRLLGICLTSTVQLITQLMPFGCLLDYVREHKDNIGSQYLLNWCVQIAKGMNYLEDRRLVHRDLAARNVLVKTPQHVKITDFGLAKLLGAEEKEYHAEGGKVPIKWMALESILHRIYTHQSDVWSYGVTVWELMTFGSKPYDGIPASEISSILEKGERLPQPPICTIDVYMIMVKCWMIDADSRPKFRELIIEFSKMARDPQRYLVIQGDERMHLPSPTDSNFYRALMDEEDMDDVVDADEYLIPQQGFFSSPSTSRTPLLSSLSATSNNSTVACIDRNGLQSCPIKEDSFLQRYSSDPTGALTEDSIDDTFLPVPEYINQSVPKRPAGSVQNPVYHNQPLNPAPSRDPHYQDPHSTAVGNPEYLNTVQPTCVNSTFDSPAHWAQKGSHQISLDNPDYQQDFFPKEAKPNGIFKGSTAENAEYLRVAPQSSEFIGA

RAW264.7 [9] = test: Anti-inflammatory activity in mouse RAW264.7 cells assessed as inhibition of LPS-induced TGFbeta mRNA level at 5 ug/ml preincubated for 2 hrs followed by LPS-stimulation measured after 8 hrs by RT-PCR method relative to control; assay type: functional
RAW264.7 [10] = test: Anti-inflammatory activity in mouse RAW264.7 cells assessed as inhibition of LPS-induced TGFbeta mRNA level preincubated for 2 hrs followed by LPS-stimulation measured after 8 hrs by RT-PCR method; assay type: functional, cell-based
[11] = biological target: Vascular endothelial growth factor receptor 2 (Homo sapiens, UniProt P35968); test: Inhibition of VEGFR2 (unknown origin) using peptide substrate after 60 mins by HTRF assay
Chain of Vascular endothelial growth factor receptor 2 (P35968 whole entry): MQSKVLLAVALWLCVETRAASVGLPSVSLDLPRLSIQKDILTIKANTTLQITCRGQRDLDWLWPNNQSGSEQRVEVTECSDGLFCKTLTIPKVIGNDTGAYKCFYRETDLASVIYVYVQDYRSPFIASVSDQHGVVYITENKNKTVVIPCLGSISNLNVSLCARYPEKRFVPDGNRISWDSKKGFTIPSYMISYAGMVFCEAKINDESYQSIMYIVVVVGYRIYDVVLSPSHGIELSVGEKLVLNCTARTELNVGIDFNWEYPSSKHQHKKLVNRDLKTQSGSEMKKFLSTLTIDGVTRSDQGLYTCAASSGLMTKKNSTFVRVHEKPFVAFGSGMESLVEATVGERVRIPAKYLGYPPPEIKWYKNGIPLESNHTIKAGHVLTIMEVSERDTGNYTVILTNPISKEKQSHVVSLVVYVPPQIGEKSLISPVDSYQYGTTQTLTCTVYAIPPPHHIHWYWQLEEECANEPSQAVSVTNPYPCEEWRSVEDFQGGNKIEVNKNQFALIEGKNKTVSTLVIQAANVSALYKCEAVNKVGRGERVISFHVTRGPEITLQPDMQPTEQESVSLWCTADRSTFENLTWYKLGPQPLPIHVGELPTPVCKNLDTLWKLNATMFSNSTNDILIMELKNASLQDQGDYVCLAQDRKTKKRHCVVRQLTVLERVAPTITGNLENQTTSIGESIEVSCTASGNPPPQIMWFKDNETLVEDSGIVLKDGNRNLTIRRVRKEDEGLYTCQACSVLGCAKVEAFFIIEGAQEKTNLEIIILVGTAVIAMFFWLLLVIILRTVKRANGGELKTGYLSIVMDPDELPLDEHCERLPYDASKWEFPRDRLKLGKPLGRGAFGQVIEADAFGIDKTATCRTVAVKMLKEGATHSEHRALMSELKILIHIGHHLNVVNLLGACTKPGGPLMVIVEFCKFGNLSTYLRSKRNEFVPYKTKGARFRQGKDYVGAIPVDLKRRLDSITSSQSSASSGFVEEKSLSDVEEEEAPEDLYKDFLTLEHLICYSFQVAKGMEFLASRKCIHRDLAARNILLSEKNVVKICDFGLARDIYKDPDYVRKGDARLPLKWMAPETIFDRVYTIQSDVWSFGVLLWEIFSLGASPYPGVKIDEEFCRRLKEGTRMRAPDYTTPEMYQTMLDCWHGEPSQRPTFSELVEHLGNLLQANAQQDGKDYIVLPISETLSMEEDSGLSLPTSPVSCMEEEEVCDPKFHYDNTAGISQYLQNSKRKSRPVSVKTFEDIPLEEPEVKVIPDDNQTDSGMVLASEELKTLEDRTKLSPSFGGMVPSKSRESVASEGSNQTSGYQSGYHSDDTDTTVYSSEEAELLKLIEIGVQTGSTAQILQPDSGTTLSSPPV

RAW264.7 [12] = test: Anti-inflammatory activity in mouse RAW264.7 cells assessed as inhibition of LPS-induced TGFbeta mRNA level at 10 ug/ml preincubated for 2 hrs followed by LPS-stimulation measured after 8 hrs by RT-PCR method relative to control; assay type: functional
RAW264.7 [13] = test: Anti-inflammatory activity in mouse RAW264.7 cells assessed as inhibition of LPS-induced TGFbeta mRNA level at 2.5 ug/ml preincubated for 2 hrs followed by LPS-stimulation measured after 8 hrs by RT-PCR method relative to control; assay type: functional
RAW264.7 [14] = test: Anti-inflammatory activity in mouse RAW264.7 cells assessed as inhibition of LPS-induced TNFalpha mRNA level at 5 ug/ml preincubated for 2 hrs followed by LPS-stimulation measured after 8 hrs by RT-PCR method relative to control; assay type: functional
RAW264.7 [15] = test: Anti-inflammatory activity in mouse RAW264.7 cells assessed as inhibition of LPS-induced TNFalpha mRNA level at 10 ug/ml preincubated for 2 hrs followed by LPS-stimulation measured after 8 hrs by RT-PCR method relative to control; assay type: functional
[16] = Antifibrotic activity against TGF-induced Wistar rat cardiac fibroblasts assessed as inhibition of cell proliferation after 12 hrs by MTT assay; assay type: functional
[17] = Antifibrotic activity against Wistar rat cardiac fibroblasts assessed as inhibition of cell proliferation at 20 uM after 12 hrs by MTT assay relative to control; assay type: functional
RAW264.7 [18] = test: Anti-inflammatory activity in mouse RAW264.7 cells assessed as inhibition of LPS-induced TNFalpha mRNA level at 2.5 ug/ml preincubated for 2 hrs followed by LPS-stimulation measured after 8 hrs by RT-PCR method relative to control; assay type: functional
[19] = Inhibition of ATX (unknown origin); set-up: species or system Homo sapiens
[20] = Potency index, ratio of gefitinib IC50 to compound IC50 for human SGC cells; assay type: functional
A549 [21] = test: Potency index, ratio of gefitinib IC50 to compound IC50 for human A549 cells; assay type: functional
RAW264.7 [22] = test: Anti-inflammatory activity in mouse RAW264.7 cells assessed as inhibition of LPS-induced NO production by measuring NO level at 5 ug/ml preincubated for 1 hr followed by LPS-stimulation measured after 24 hrs by Griess assay; assay type: functional
MKN-45 [23] = test: Potency index, ratio of gefitinib IC50 to compound IC50 for human MKN45 cells; assay type: functional
RAW264.7 [24] = test: Anti-inflammatory activity in mouse RAW264.7 cells assessed as inhibition of LPS-induced NO production by measuring NO level at 2.5 ug/ml preincubated for 1 hr followed by LPS-stimulation measured after 24 hrs by Griess assay; assay type: functional

Question: What does the source list for `O=C(N/N=C/c1cccc([N+](=O)[O-])c1)N1CCc2ncnc(Nc3ccc(F)c(Cl)c3)c2C1`?
Answer: IC50 (A549 [1]): 43.1 µM; IC50 [2]: 34.8 µM; IC50 (MKN-45 [3]): > 200 µM; IC50 (NCI-H1975): 86.9 µM

Question: Which Activity (RAW264.7 [4]) does the source give for `Cc1ccc(/C=N/NC(=O)N2CCc3ncnc(Nc4cccc(C(F)(F)F)c4)c3C2)cc1` here?
Answer: 1.05 µM

Question: And the IC50 (A549 [1])?
Answer: 4.96 µM

Question: And the inhibition (RAW264.7 [5])?
Answer: Dose-dependent effect

Question: And the IC50 [6]?
Answer: 0.0291 µM

Question: What about the IC50 [2] of the same molecule?
Answer: 2.91 µM

Question: And the IC50 [7]?
Answer: 3.22 µM

Question: And the IC50 (MKN-45 [3])?
Answer: 3.43 µM

Question: And the IC50 [8]?
Answer: 0.0242 µM

Question: What about the inhibition at 5 µg/mL (RAW264.7 [9]) of the same molecule?
Answer: 65%

Question: And the inhibition (RAW264.7 [10])?
Answer: Dose-dependent effect

Question: What about the IC50 [11] of the same molecule?
Answer: 0.152 µM

Question: What about the inhibition at 10 µg/mL (RAW264.7 [12]) of the same molecule?
Answer: 86%

Question: What about the inhibition at 2.5 µg/mL (RAW264.7 [13]) of the same molecule?
Answer: 46%

Question: What about the inhibition at 5 µg/mL (RAW264.7 [14]) of the same molecule?
Answer: 54%

Question: What about the inhibition at 10 µg/mL (RAW264.7 [15]) of the same molecule?
Answer: 72%

Question: What about the IC50 (NCI-H1975) of the same molecule?
Answer: 21.3 µM

Question: And the IC50 [16]?
Answer: 1.49 µM

Question: What about the inhibition at 20 µM [17] of the same molecule?
Answer: 77%

Question: What about the inhibition at 2.5 µg/mL (RAW264.7 [18]) of the same molecule?
Answer: 37%

Question: For `O=C(N/N=C/c1ccc(F)cc1)N1CCc2ncnc(Nc3cccc(C(F)(F)F)c3)c2C1`, which IC50 (A549 [1]) is on record?
Answer: 6.37 µM

Question: And the IC50 [2]?
Answer: 4.23 µM

Question: And the IC50 (MKN-45 [3])?
Answer: 4 µM

Question: And the IC50 (NCI-H1975)?
Answer: 55.6 µM

Question: Which IC50 (A549 [1]) does the source give for `O=C(N/N=C/c1ccc(Br)cc1)N1CCc2ncnc(Nc3ccc(F)c(Cl)c3)c2C1` here?
Answer: 14.1 µM

Question: What about the IC50 [2] of the same molecule?
Answer: 13.5 µM

Question: What about the IC50 (MKN-45 [3]) of the same molecule?
Answer: 12.1 µM

Question: What about the IC50 (NCI-H1975) of the same molecule?
Answer: > 200 µM

Question: What about the inhibition at 20 µM [17] of the same molecule?
Answer: 65 to 83%

Question: With `O=C(N/N=C/c1ccccc1)N1CCc2ncnc(Nc3ccc(F)c(Cl)c3)c2C1` as the molecule, how does the IC50 (A549 [1]) read?
Answer: 31.5 µM

Question: What about the IC50 [2] of the same molecule?
Answer: 7.47 µM

Question: And the IC50 (MKN-45 [3])?
Answer: 22.9 µM

Question: What about the IC50 (NCI-H1975) of the same molecule?
Answer: 28.8 µM

Question: Which IC50 (A549 [1]) does the source give for `O=C(N/N=C/c1cc(F)c(F)cc1Cl)N1CCc2ncnc(Nc3ccc(F)c(Cl)c3)c2C1` here?
Answer: 7.55 µM

Question: And the IC50 [6]?
Answer: 0.0384 µM

Question: And the IC50 [2]?
Answer: 10.4 µM

Question: What about the IC50 (MKN-45 [3]) of the same molecule?
Answer: 7.33 µM

Question: And the IC50 [8]?
Answer: 0.0423 µM

Question: What about the IC50 [11] of the same molecule?
Answer: 0.17 µM

Question: And the IC50 (NCI-H1975)?
Answer: 46.1 µM

Question: And the IC50 [16]?
Answer: 1.91 µM

Question: What about the inhibition at 20 µM [17] of the same molecule?
Answer: 65 to 83%

Question: For `O=C(CCc1nc2ccccc2s1)N1CCc2ncnc(Cc3ccc(F)cc3)c2C1`, which IC50 [6] is on record?
Answer: 0.0104 µM

Question: And the IC50 [19]?
Answer: 0.00259 µM

Question: What about the inhibition at 20 µM [17] of the same molecule?
Answer: 68%

Question: Which inhibition (RAW264.7 [4]) does the source give for `O=C(N/N=C/c1ccc(F)cc1Cl)N1CCc2ncnc(Nc3cccc(Br)c3)c2C1` here?
Answer: Active

Question: And the IC50 (A549 [1])?
Answer: 1.61 µM

Question: What about the IC50 [2] of the same molecule?
Answer: 0.99 µM

Question: And the IC50 [7]?
Answer: 0.94 µM

Question: What about the “Ratio IC50” value [20] of the same molecule?
Answer: 3.3

Question: What about the IC50 (MKN-45 [3]) of the same molecule?
Answer: 1.71 µM

Question: What about the “Ratio IC50” value (A549 [21]) of the same molecule?
Answer: 7.6

Question: And the IC50 [8]?
Answer: 0.018 µM

Question: What about the inhibition (RAW264.7 [22]) of the same molecule?
Answer: Active

Question: And the “Ratio IC50” value (MKN-45 [23])?
Answer: 6.1

Question: And the inhibition (RAW264.7 [24])?
Answer: Active

Question: What about the IC50 [11] of the same molecule?
Answer: 0.133 µM

Question: What about the IC50 (NCI-H1975) of the same molecule?
Answer: 15.7 µM

Question: What does the source list for `O=C(N/N=C/c1ccco1)N1CCc2ncnc(Nc3cccc(Br)c3)c2C1`?
Answer: IC50 (A549 [1]): 47.1 µM; IC50 [2]: > 200 µM; IC50 (MKN-45 [3]): 65.7 µM; IC50 (NCI-H1975): > 200 µM

Question: With `O=C(N/N=C/c1ccc(C(F)(F)F)cc1)N1CCc2ncnc(Nc3ccc(F)c(Cl)c3)c2C1` as the molecule, how does the Activity (RAW264.7 [4]) read?
Answer: 0.79 µM

Question: And the IC50 (A549 [1])?
Answer: 37.8 µM

Question: And the IC50 [2]?
Answer: 36.4 µM

Question: What about the IC50 (MKN-45 [3]) of the same molecule?
Answer: 21.4 µM

Question: What about the Activity (RAW264.7 [22]) of the same molecule?
Answer: 2.1 µM

Question: And the Activity (RAW264.7 [24])?
Answer: 3.87 µM

Question: And the IC50 (NCI-H1975)?
Answer: 36.8 µM

Question: What about the inhibition at 20 µM [17] of the same molecule?
Answer: 65 to 83%

Question: Which Activity (RAW264.7 [4]) does the source give for `O=C(N/N=C/c1cccs1)N1CCc2ncnc(Nc3cccc(C(F)(F)F)c3)c2C1` here?
Answer: <1.9 µM

Question: What about the IC50 (A549 [1]) of the same molecule?
Answer: 42.4 µM

Question: And the IC50 [2]?
Answer: 24.6 µM

Question: What about the IC50 (MKN-45 [3]) of the same molecule?
Answer: 36.4 µM

Question: And the IC50 (NCI-H1975)?
Answer: 169 µM

Question: What about the inhibition at 20 µM [17] of the same molecule?
Answer: 65 to 83%

Question: What does the source list for `O=C(N/N=C/c1cccs1)N1CCc2ncnc(Nc3ccc(F)c(Cl)c3)c2C1`?
Answer: Activity (RAW264.7 [4]): <1.9 µM; IC50 (A549 [1]): > 200 µM; IC50 [2]: 96.3 µM; IC50 (MKN-45 [3]): 57.3 µM; IC50 [8]: 0.0625 µM; IC50 [11]: 0.237 µM; IC50 (NCI-H1975): 33 µM; inhibition at 20 µM [17]: 83%
